Measured values: PubChem BioAssay (NCI)
“And” between values parts separate entries of the source, which are not always exact repeats. Identical values can stand only once.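 96-well plates; 48 h exposure; 5 concentrations. Endpoints by linear interpolation between flanking doses. Not reached: highest tested concentration assigned. GI50 is the concentration that inhibits growth by half. TGI marks complete inhibition of growth.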

Assays:
Experiment in all cases: NCI anticancer screen, dose series, 48 h
[1] = tested on: A498 renal
[2] = tested on: A549 NSCLC
[3] = tested on: EKVX NSCLC
[4] = tested on: KM12 colon
[5] = tested on: MCF7 breast
[6] = tested on: OVCAR-4 ovarian
[7] = tested on: SK-MEL-5 melanoma
[8] = tested on: TK-10 renal
[9] = tested on: UACC-257 melanoma
[10] = tested on: UO-31 renal

Row | SMILES | TGI [1] | TGI [2] | TGI [3] | TGI [4] | TGI [5] | TGI [6] | TGI [7] | TGI [8] | TGI [9] | TGI [10] | GI50 [1] | GI50 [2] | GI50 [3] | GI50 [4] | GI50 [5] | GI50 [6] | GI50 [7] | GI50 [8] | GI50 [9] | GI50 [10]
1 | CCC(=S)N(C)O | > 100 µM | > 100 µM | > 100 µM | > 93.1 µM | > 100 µM | > 100 µM | 51 µM | > 95.3 µM | > 100 µM | 68.9 µM | – | – | – | – | – | – | – | – | – | –
2 | O=C(O)[C@@H]1C[C@@H](O)CN1 | > 100 µM | > 100 µM | > 100 µM | > 100 µM | > 100 µM | > 100 µM | > 100 µM | > 100 µM | > 100 µM | > 100 µM | – | – | – | – | – | – | – | – | – | –
3 | O=C1C(Nc2ccccn2)=C(I)C(=O)c2ncccc21 | 2.74 µM | 2.88 µM | 3.3 µM | 3.42 µM | 2.07 µM | 2.27 µM | 2.31 µM | 3.65 µM | 3.49 µM | – | 1.26 µM | 1.28 µM | 1.62 µM | 1.65 µM | 0.396 µM | 1.07 µM | 1.11 µM | 1.87 µM | 1.59 µM | –
4 | COc1ccc(/C=N/NC(=O)O)cc1 | > 100 µM | > 100 µM | > 100 µM | > 100 µM | > 100 µM | > 100 µM | > 100 µM | > 100 µM | > 100 µM | > 100 µM | – | – | – | – | – | – | – | – | – | –
5 | O=C(Nc1ccc(-n2cc(-c3ccncc3)c(-c3ccc(Cl)c(O)c3)n2)cc1)c1cc(Cl)cc(Cl)c1 | > 100 µM | > 100 µM | > 100 µM | > 29.4 µM | > 100 µM | > 100 µM | 2.93 µM | > 100 µM | > 100 µM | > 100 µM | 17.3 µM | > 28 µM | 50.7 µM | 2.72 µM | 6.21 µM | > 94 µM | 1.46 µM | > 19.9 µM | 5.68 µM | 3.94 µM
6 | NC(N)=NC(N)=NCCc1ccccc1 | > 100 µM | > 100 µM | > 100 µM | > 100 µM | > 100 µM | > 100 µM | > 100 µM | > 100 µM | > 100 µM | > 100 µM | – | > 100 µM and 97.1 µM | 6.79 µM and 7.74 µM | > 100 µM | > 100 µM | 66.7 µM and 97.9 µM | 87.7 µM and 73.3 µM | 58.6 µM and > 100 µM | > 100 µM and 97.3 µM | 98.9 µM and 38.5 µM
7 | O=c1cccc(C#CCCCCOC2CCCO2)o1 (stereo not given) | – | > 48.8 µM | 39 µM | > 45.8 µM | > 100 µM | > 60.1 µM | > 16.4 µM | 35.6 µM | > 20.2 µM | > 57.6 µM | 4.09 µM | 9.16 µM | 8.27 µM | 20.4 µM | 8.73 µM | > 33.4 µM | 7.47 µM | 13.4 µM | 9.49 µM | 9.07 µM
8 | c1ccc(-c2cc(-c3cc(-c4ccccn4)[nH]n3)n[nH]2)nc1 | > 100 µM | > 100 µM | > 100 µM | > 100 µM | > 100 µM | > 100 µM | > 100 µM | – | > 100 µM | 73.2 µM | – | – | – | – | – | – | – | – | – | –
9 | O=C=Nc1ccc(Cc2ccc(N=C=O)cc2)cc1 (tested in a mixture with another compound) | > 25 µg/mL | > 25 µg/mL | > 25 µg/mL | > 25 µg/mL | > 25 µg/mL | > 25 µg/mL | > 25 µg/mL | > 25 µg/mL | > 25 µg/mL | > 25 µg/mL | > 25 µg/mL | > 25 µg/mL | > 25 µg/mL | > 25 µg/mL | > 25 µg/mL | > 25 µg/mL | > 25 µg/mL | > 25 µg/mL | > 25 µg/mL | > 25 µg/mL
10 | NC1=C(c2nc(-c3cc4ccccc4oc3=O)cs2)C(c2ccco2)c2c(c3ccccc3oc2=O)O1 (stereo not given) | > 150 µg/mL | > 150 µg/mL | > 150 µg/mL | > 150 µg/mL | > 150 µg/mL | > 150 µg/mL | > 150 µg/mL | 87.6 µg/mL | > 150 µg/mL | – | 66.1 µg/mL | > 150 µg/mL | 69.7 µg/mL | > 150 µg/mL | > 150 µg/mL | 68.3 µg/mL | > 150 µg/mL | 46.4 µg/mL | > 150 µg/mL | –
11 | N#Cc1cccc(Nc2nccc(-c3cnn4ncccc34)n2)c1 | 0.0091 µM | > 25 µM | – | 0.0263 µM | > 25 µM | – | 0.018 µM | 0.0172 µM | 0.0154 µM | > 25 µM | 0.00371 µM | 0.00729 µM | – | 0.00632 µM | 0.00856 µM | 0.0322 µM | 0.00618 µM | 0.00603 µM | 0.00594 µM | 0.00719 µM
